Legend:
E. coli ADC = biological target: T1, E. coli ADC (Escherichia coli, UniProt P21170); assay: Ultrafiltration of ADC~PLP=AO-Agm complex, then ADC activity assay; type: biochemical; conditions: 15 μM AO-Agm
T1 construct: The kinetic parameters determined for the partially purified biosynthetic ADC from E. coli; endogenous in cells; host or cells: E. coli DH5α (39-53% ammonium sulphate fraction of the lysate, desalted)
T1 sequence (P21170 1-658): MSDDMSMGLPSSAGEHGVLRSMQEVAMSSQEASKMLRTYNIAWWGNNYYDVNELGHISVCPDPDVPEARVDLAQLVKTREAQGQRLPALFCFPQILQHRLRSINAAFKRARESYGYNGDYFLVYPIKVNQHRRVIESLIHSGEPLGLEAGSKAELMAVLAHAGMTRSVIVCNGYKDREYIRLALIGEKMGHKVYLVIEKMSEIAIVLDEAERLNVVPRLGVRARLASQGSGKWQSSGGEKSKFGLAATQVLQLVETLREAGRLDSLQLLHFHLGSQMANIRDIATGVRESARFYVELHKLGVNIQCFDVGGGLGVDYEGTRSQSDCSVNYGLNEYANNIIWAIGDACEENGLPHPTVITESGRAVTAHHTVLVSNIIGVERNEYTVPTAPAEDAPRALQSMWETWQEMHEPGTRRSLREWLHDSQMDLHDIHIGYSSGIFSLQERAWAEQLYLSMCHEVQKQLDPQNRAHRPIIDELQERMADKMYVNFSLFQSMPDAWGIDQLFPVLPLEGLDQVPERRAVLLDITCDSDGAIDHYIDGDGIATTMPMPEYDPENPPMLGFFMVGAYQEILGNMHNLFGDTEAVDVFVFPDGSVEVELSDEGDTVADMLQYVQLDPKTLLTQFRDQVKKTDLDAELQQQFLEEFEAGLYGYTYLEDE
Experimental: Partially purified enzyme preparation was preincubated for 15 min with 15 μM AO-Agm (which produced 100% inhibition) or H2O (control) and 0.1 mM PLP in the assay buffer. The samples were placed on ice, and half of the reactions were filtered through a 3K cutoff ultrafiltration device (Millipore) and washed twice with 600 μL of buffer containing 50 mM Tris-HCl pH 7.4, 1 mM DTT and 0.1 mM PLP. ADC activity was then assayed.

mouse kidney ODC = biological target: T2, mouse kidney ODC (Mus musculus, UniProt P00860); assay: Assay of mouse kidney ODC activity; type: biochemical; conditions: 0.4 mM L-Orn; 0.4 mM PLP
T2 construct: from tissue; host or cells: C57Bl/6J male mouse kidney, 12,000 g supernatant of the homogenate
T2 sequence (P00860 1-461): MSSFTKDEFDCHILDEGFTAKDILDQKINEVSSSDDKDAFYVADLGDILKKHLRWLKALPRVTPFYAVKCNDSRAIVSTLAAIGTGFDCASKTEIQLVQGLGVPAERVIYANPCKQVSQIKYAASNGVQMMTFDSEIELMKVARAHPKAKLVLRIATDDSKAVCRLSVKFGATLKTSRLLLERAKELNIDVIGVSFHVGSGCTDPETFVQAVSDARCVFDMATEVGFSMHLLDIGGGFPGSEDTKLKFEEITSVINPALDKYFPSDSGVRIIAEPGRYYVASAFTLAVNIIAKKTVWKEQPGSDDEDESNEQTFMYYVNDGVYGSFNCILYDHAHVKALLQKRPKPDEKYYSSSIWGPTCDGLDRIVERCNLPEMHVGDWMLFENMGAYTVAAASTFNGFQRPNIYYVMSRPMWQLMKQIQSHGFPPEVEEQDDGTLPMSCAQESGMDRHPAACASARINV
Experimental: C57Bl/6J male mouse kidney was homogenized with TissueLyzer (Qiagen) to 2 volumes of buffer containing 50 mM Tris-HCl pH 7.4, 1 mM DTT, 1 mM EDTA, 0.1% Triton X-100 and 1× Complete EDTA-free protease inhibitor cocktail (Roche) and centrifuged at 12,000 g for 30 min at +4 °C. Aliquots of the supernatant were mixed with 1–5000 μM of AO-Agm and the ODC assay was carried out as previously described. The reaction mixture contained 0.4 mM PLP and 0.4 mM L-Orn.

[1] = test system: DU145 prostate cancer cells; assay: Growth of DU145 cells; type: cell-based; conditions: for Growth: 3 days
Experimental: DU145 prostate cancer cells were cultured in high-glucose Dulbecco’s Modified Eagle’s Medium supplemented with 10% heat-inactivated fetal bovine serum, 2 mM L-glutamine and 50 μg/mL gentamycin (all from Sigma-Aldrich). The cells were plated on 6-well plates and allowed to attach overnight. […] The cells were harvested, and the pellet was mixed with 150 μL of 5% sulphosalicylic acid containing 5 μM diaminoheptane (internal standard). Polyamine analysis was carried out as described previously.

[2] = test system: Acremonium chrysogenum wild-type (WT) ATCC 11550; assay: Fungal growth inhibition (drop-dilution, CD agar), WT strain; type: cell-based; conditions: Hapsidospora chrysogena, ATCC11550, 336 h, 5 mM inhibitor, 14 days after inoculation on CD medium
Source text: (§1) Two strains of Acremonium chrysogenum were used in this study: the wild-type (Brotzu) isolate ATCC 11550 (WT) and high-cephalosporin-yielding RNCM F-4081D (HY), derived from the WT [37]. The cultivation conditions were the same as previously described. The filamentous fungi were cultivated on agarized Czapek-Dox (CD) medium (30 g/L sucrose, 2 g/L NaNO3, 1 g/L K2HPO4, 0.5 g/L MgSO4×7 H2O, 0.5 g/L KCl, 0.01 g/L FeSO4×7 H2O, 20 g/L agar, pH 7.0–7.4). To determine the toxic effect of AO-Agm, APA, DFMA and DFMO on the growth of fungal cells the drop-dilution method was used with some modifications as described earlier. Cells were collected from agar slants and diluted with 0.9% NaCl solution up to OD600 = 0.5 (basic concentration), followed by serial tenfold dilutions with the same solution. […] The inoculated Petri dishes were incubated for 21 days at 26 °C. The inhibitory effects of the compounds were measured every three days after inoculation and evaluated by measuring the ratio of colony growth on agarized CD medium supplemented with AO-Agm, APA, DFMA, or DFMO to the growth in the control (agarized CD medium without any additions). The formula: growth inhibition % = [(Dc − Dt)/Dc] × 100, where Dc indicates the colony diameter in control set, and Dt indicates the colony diameter in the treatment set that was used to determine the percent of fungal growth inhibition. The data recorded were measured in triplicate and repeated at least twice.

[3] = test system: Acremonium chrysogenum high-cephalosporin-yielding (HY) RNCM F-4081D; assay: Fungal growth inhibition (drop-dilution, CD agar), HY strain; type: cell-based; conditions: Hapsidospora chrysogena, 336 h, read-out: Growth inhibition
Source text: as §1

SMILES: N=C(N)NCCCON [AO-Agm, 1-aminooxy-3-guanidinopropane]
- inhibition at 15 µM (E. coli ADC; 15 min preincubation, 0.1 mM PLP): 100%
- ADC activity after ultrafiltration and washing of the inhibitory complex (E. coli ADC; buffer containing 0.1 mM PLP): fully restored ADC activity
- IC50 (mouse kidney ODC): 5.3 ± 0.7 µM
- Growth ([1]; AO-Agm 10 μM in the presence of SC (1 mM)): 0.94 ± 0.03 Fold
- Growth ([1]; AO-Agm 10 μM, no SC): 0.96 ± 0.02 Fold
- Proliferation and intracellular polyamine pools of DU145 cells ([1]; AO-Agm 0.01 mM and 0.1 mM): without effect
- Growth ([1]; AO-Agm 100 μM in the presence of SC (1 mM)): 0.97 ± 0.02 Fold
- Growth ([1]; AO-Agm 100 μM, no SC): 0.96 ± 0.04 Fold
- Proliferation of DU145 cells ([1]; AO-Agm 1 mM): moderately inhibited
- Growth ([1]; AO-Agm 1 mM in the presence of SC (1 mM)): 0.45 ± 0.01 Fold
- Growth ([1]; AO-Agm 1 mM, no SC): 0.72 ± 0.04 Fold
- inhibition at 5000 µM [2]: 34%
- inhibition at 5000 µM [3]: 49%
